Reference: patent publication US20250270246A1, “LINCOSAMIDES AND USES THEREOF” (President and Fellows of Harvard College, priority 2022, published 2025)
In brackets after ≈: the same amount, converted by molar mass. Several values for one entry are separate records, joined by “and”; a condition that tells them apart may be missing. Equal values may be shown once.

Experiments:
[1] = system: E. coli ATCC 25922 (HAV#006); assay: MIC by broth microdilution (CLSI); assay type: cell-based; conditions: Escherichia coli, ATCC25922, 24 h, HAV#006, ATCC 25922; CaMHB, 24 h incubation; read-out: MIC E. coli ATCC 25922
Summary of the method: (§1)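 Cation-adjusted Mueller-Hinton medium, Chelex 100 ion-exchange treated where P. aeruginosa was tested. Twofold series 64 down to 0.06 μg/mL, 2.5% DMSO final, 5×10^5 CFU/mL inoculum, 24 h incubation; endpoint is no visible growth.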

E. coli lptD mutant = assay: MIC by broth microdilution (CLSI); assay type: cell-based; conditions: Escherichia coli, 24 h, read-out: MIC E. coli lptD mutant, lptD mutant / ΔlptD mutant; CaMHB, 24 h incubation
Summary of the method: as §1

[2] = system: E. faecalis ATCC 29212 (HAV#005); assay: MIC by broth microdilution (CLSI); assay type: cell-based; conditions: Enterococcus faecalis, ATCC29212, 24 h, HAV#005, ATCC 29212; CaMHB, 24 h incubation; read-out: MIC E. faecalis ATCC 29212
Summary of the method: as §1

E. faecium JMI-990536 = assay: MIC by broth microdilution (CLSI); assay type: cell-based; conditions: Enterococcus faecium, JMI990536, 24 h, JMI-990536; CaMHB, 24 h incubation; read-out: MIC E. faecium JMI-990536
Summary of the method: as §1

H. influenzae ATCC 49247 = assay: MIC by broth microdilution (CLSI); assay type: cell-based; conditions: Haemophilus influenzae, ATCC49247; ATCC 49247; 24 h incubation; read-out: MIC H. influenzae ATCC 49247
Summary of the method: as §1

K. pneumoniae JMI-991193 = assay: MIC by broth microdilution (CLSI); assay type: cell-based; conditions: Klebsiella pneumoniae, JMI991193, 24 h, JMI-991193; CaMHB, 24 h incubation; read-out: MIC K. pneumoniae JMI-991193
Summary of the method: as §1

[3] = system: M. catarrhalis ATCC 25238; assay: MIC by broth microdilution (CLSI); assay type: cell-based; conditions: Moraxella catarrhalis, ATCC25238, 24 h incubation
Summary of the method: as §1

[4] = system: S. aureus ATCC 29213 (HAV#001); assay: MIC by broth microdilution (CLSI); assay type: cell-based; conditions: Staphylococcus aureus, ATCC29213, 24 h, HAV#001, ATCC 29213; CaMHB, 24 h incubation; read-out: MIC S. aureus ATCC 29213
Summary of the method: as §1

S. aureus Clinical (cfr) = assay: MIC by broth microdilution (CLSI); assay type: cell-based; conditions: Staphylococcus aureus, 24 h, Clinical (cfr); CaMHB, 24 h incubation; read-out: MIC S. aureus Clinical (cfr)
Summary of the method: as §1

S. aureus MMX 3035 = assay: MIC by broth microdilution (CLSI); assay type: cell-based; conditions: Staphylococcus aureus, MMX3035, 24 h, MMX 3035; CaMHB, 24 h incubation; read-out: MIC S. aureus MMX 3035
Summary of the method: as §1

S. pneumoniae c-ermB = assay: MIC by broth microdilution (CLSI); assay type: cell-based; conditions: Streptococcus pneumoniae, 24 h, read-out: MIC S. pneumoniae c-ermB
Summary of the method: as §1

[5] = system: P. aeruginosa ATCC 27853 (HAV#009); assay: MIC by broth microdilution (CLSI), Chelex 100-treated broth; assay type: cell-based; conditions: Pseudomonas aeruginosa, ATCC27853; HAV#009, ATCC 27853; CaMHB pre-treated with Chelex 100 ion exchange resin, 24 h
Procedure: Minimum inhibitory concentrations (MICs) were determined by the broth microdilution method following the Clinical and Laboratory Standards Institute (CLSI) guidelines. Test organisms consisted of standard reference strains from the American Type Culture Collection (ATCC; Manassa, VA, USA) and clinical isolates obtained from JMI Laboratories Inc. (North Liberty, IA, USA), Micromyx repository (MMX; Kalamazoo, MI, USA), and Massachusetts Eye and Ear Hospital (Boston, USA). Before the start of the MIC experiment, standard and test compound stock solutions were prepared in dimethyl sulfoxide (DMSO, Aldrich D2650) at a stock concentration of 2,560 μg/mL. The compound concentration range typically employed for each experiment was 64-0.06 μg/mL (2.5% final DMSO concentration). Iboxamycin was used as a comparator in all experiments. All bacterial strains were sub-cultured on blood agar plates (tryptic soy agar with 5% sheep blood, Hardy Diagnostics) and incubated overnight at 35° C. Organisms were suspended in cation-adjusted Mueller-Hinton broth (CaMHB, BD 212322) and optical density was adjusted to 0.5 McFarland standard. Suspensions were further diluted to obtain a final inoculum of 5×10^5 CFU/mL for broth microdilution experiments. The minimum concentration of compound required to inhibit visible bacterial growth after 24 h of incubation was recorded as the MIC in μg/mL. MICs for P. aeruginosa were recorded in cation-adjusted Mueller-Hinton broth which had been pre-treated with Chelex 100 ion exchange resin according to procedures reported in Ito et al. Antimicrob Agents Chemother (2016) 60 (12), 7396-7401.

[6] = from C=CCC[C@@H](NC(=O)[C@@H]1[C@@H]2OCC[C@@H](CC(C)C)C[C@H]2CN1C(=O)OC(C)(C)C)[C@H]1O[C@H](SCC=C)[C@H](O)[C@@H](O)[C@H]1O; rcm bond; 10-membered ring; Grubbs II (20 mol%)/benzoquinone; then HCl/MeOH; toluene; 0.2 mM; 0.33 h; 3 steps

| SMILES | MIC [1] [µg/mL] | MIC (E. coli lptD mutant) [µg/mL] | MIC [2] [µg/mL] | MIC (E. faecium JMI-990536) [µg/mL] | MIC (H. influenzae ATCC 49247) [µg/mL] | MIC (K. pneumoniae JMI-991193) [µg/mL] | MIC [3] [µg/mL] | MIC [4] [µg/mL] | MIC (S. aureus Clinical (cfr)) [µg/mL] | MIC (S. aureus MMX 3035) [µg/mL] | MIC (S. pneumoniae c-ermB) [µg/mL] | MIC [5] [µg/mL] | ring closure, yield after HPLC [6] |
| --- | --- | --- | --- | --- | --- | --- | --- | --- | --- | --- | --- | --- | --- |
| CC(C)C[C@@H]1CCO[C@@H]2[C@H](CN[C@@H]2C(=O)N[C@H]2[C@H]3O[C@H](SCCCC/C=C/[C@H]2C)[C@H](O)[C@@H](O)[C@H]3O)C1 [FSA1610016, (4S,5aS,8S,8aR)-4-isobutyl-N-((1R,9R,10R,11R,12R,13S,14R,E)-12,13,14-trihydroxy-9-methyl-15-oxa-2-thiabicyclo[9.3.1]pentadec-7-en-10-yl) octahydro-2H-oxepino[2,3-c]pyrrole-8-carboxamide] | 16 (≈ 30.4 µM) | 2 (≈ 3.8 µM) | 0.25 (≈ 0.475 µM) | 4 (≈ 7.59 µM) | ≤ 0.06 | 32 (≈ 60.8 µM) | 2 (≈ 3.8 µM) | 0.125 (≈ 0.237 µM) | 16 (≈ 30.4 µM) | 16 (≈ 30.4 µM) | 8 (≈ 15.2 µM) | 4 (≈ 7.59 µM) |  |
| CC(C)C[C@@H]1CCO[C@@H]2[C@H](CN[C@@H]2C(=O)N[C@H]2[C@H]3O[C@H](SCCCC/C=C/[C@@H]2C)[C@H](O)[C@@H](O)[C@H]3O)C1 [FSA1610014, (4S,5aS,8S,8aR)-4-isobutyl-N-((1R,9S,10R,11R,12R,13S,14R,E)-12,13,14-trihydroxy-9-methyl-15-oxa-2-thiabicyclo[9.3.1]pentadec-7-en-10-yl) octahydro-2H-oxepino[2,3-c]pyrrole-8-carboxamide] | > 32 | 16 (≈ 30.4 µM) | 2 (≈ 3.8 µM) | 32 (≈ 60.8 µM) | 0.25 (≈ 0.475 µM) | > 32 | 16 (≈ 30.4 µM) | 0.5 (≈ 0.949 µM) | 32 (≈ 60.8 µM) | 32 (≈ 60.8 µM) | 16 (≈ 30.4 µM) | 32 (≈ 60.8 µM) |  |
| CC(C)C[C@@H]1CCO[C@@H]2[C@H](CN[C@@H]2C(=O)N[C@H]2[C@H]3O[C@H](SCCCC/C=C\[C@H]2C)[C@H](O)[C@@H](O)[C@H]3O)C1 [FSA1610015, (4S,5aS,8S,8aR)-4-isobutyl-N-((1R,9R,10R,11R,12R,13S,14R,Z)-12,13,14-trihydroxy-9-methyl-15-oxa-2-thiabicyclo[9.3.1]pentadec-7-en-10-yl) octahydro-2H-oxepino[2,3-c]pyrrole-8-carboxamide] | 8 (≈ 15.2 µM) | 1 (≈ 1.9 µM) | 0.25 (≈ 0.475 µM) | 1 (≈ 1.9 µM) | ≤ 0.06 | 32 (≈ 60.8 µM) | 1 (≈ 1.9 µM) | 0.125 (≈ 0.237 µM) | 2 (≈ 3.8 µM) | 8 (≈ 15.2 µM) | 4 (≈ 7.59 µM) | 4 (≈ 7.59 µM) |  |
| CC(C)C[C@@H]1CCO[C@@H]2[C@@H](C1)CN(C(=O)OC(C)(C)C)[C@@H]2C(=O)N[C@@H]1CCC=CCS[C@H]2O[C@H]1[C@H](O)[C@H](O)[C@H]2O |  |  |  |  |  |  |  |  |  |  |  |  | 1.3% and 1.7% |
